Three molecules from US7820655B2, “Ethanol or 1,2-ethanediol cyclohexyl antibiotic derivatives” (Actelion Pharmaceuticals Ltd., priority 2006, dated 2010) can be followed below.

Values after ≈ are worked out from the molar mass of the structure shown.

What is called MIC is the least concentration at which growth counts as inhibited. A high value points to weaker potency.

What all share (format): cell-based
The subject of test [1] is S. aureus A798. Kind of test: MIC by broth microdilution (NCCLS), S. aureus A798. The conditions noted are these: Staphylococcus aureus, cation-adjusted Mueller-Hinton Broth, pH 7.2-7.3. How it is done: (§1) These assays have been performed following the description given in “Methods for dilution Antimicrobial Susceptibility Tests for Bacteria that Grow Aerobically, 4th ed.; Approved standard: NCCLS Document M7-A4; National Committee for Clinical Laboratory Standards Villanova, Pa., USA, 1997”. Minimal inhibitory concentrations (MICs; mg/l) were determined in cation-adjusted Mueller-Hinton Broth (BBL) by a microdilution method following NCCLS guidelines (National Committee for Clinical Laboratory Standards. Methods for Dilution Antimicrobial Susceptibility). The pH of the test medium was 7.2-7.3.

Test [2] deals with M. catarrhalis A894. In words: MIC by broth microdilution (NCCLS), M. catarrhalis A894. The conditions noted are these: Moraxella catarrhalis, cation-adjusted Mueller-Hinton Broth, pH 7.2-7.3. How it is done: as §1
For test [3], the system named is S. Pneumoniae 49619. Kind of test: MIC by broth microdilution (NCCLS), S. Pneumoniae 49619. The note with it: Streptococcus pneumoniae, cation-adjusted Mueller-Hinton Broth, pH 7.2-7.3. As for the experimental part:
as §1

For `COc1ccc2nccc(C[C@@H](O)[C@H]3CC[C@H](NCc4ccc5c(n4)NC(=O)CO5)CC3)c2n1` [Example 12, 6-(trans{4-[1-(1R)-hydroxy-2-(6-methoxy-[1,5]naphthyridin-4-yl)-ethyl]-cyclohexylamino}-methyl)-4H-pyrido[3,2-b][1,4]oxazin-3-one], the results for the MIC in test [1], in test [2] and in test [3] were 0.063 µg/mL (≈ 0.136 µM), 0.031 µg/mL (≈ 0.0669 µM) and 0.125 µg/mL (≈ 0.27 µM), respectively.
In the case of `COc1cnc2cccc([C@@H](O)[C@H](O)[C@H]3CC[C@H](NC/C=C/c4cc(F)ccc4F)CC3)c2n1` [Example 10, (1R,2R)-1-{trans-4-[(E)-3-(2,5-difluoro-phenyl)-allylamino]-cyclohexyl}-2-(3-methoxy-quinoxalin-5-yl)-ethane-1,2-diol], the MIC in test [1] is no more than 0.031 µg/mL; in test [2], no more than 0.031 µg/mL; in test [3], 0.063 µg/mL (≈ 0.134 µM).
As for `COc1ccc2nccc([C@@H](O)[C@H](O)[C@H]3CC[C@H](NCc4ccc5c(n4)NC(=O)CS5)CC3)c2n1` [Example 3, 6-(trans-{4-[(1R,2R)-1,2-dihydroxy-2-(6-methoxy-[1,5]naphthyridin-4-yl)-ethyl]-cyclohexylamino}-methyl)-4H-pyrido[3,2-b][1,4]thiazin-3-one], the minimum inhibitory concentration (MIC) in test [1] was no more than 0.031 µg/mL; in test [2] it was no more than 0.031 µg/mL; in test [3], 0.063 µg/mL (≈ 0.127 µM).
